{"source": "ChEMBL document CHEMBL1914302", "about": "“The structure-antituberculosis activity relationships study in a series of 5-aryl-2-thio-1,3,4-oxadiazole derivatives” (2011)", "data": [{"system": "Mycobacterium tuberculosis", "experiment": "Antimycobacterial activity against Mycobacterium tuberculosis H37Rv ATCC 27294 assessed as growth inhibition at 6.25 ug/mL after 4 days by microplate alamar blue assay", "assay_type": "functional", "conditions": "H37Rv ATCC 27294, 96 h, read-out: GI", "units": {"inhibition of growth at 6.25 µg/mL": "%"}, "values": [{"smiles": "NC(=S)Nc1ccc(-c2nnc(S)o2)cc1", "inhibition of growth at 6.25 µg/mL": 70}, {"smiles": "CSc1nnc(-c2cccc(NC(=S)Nn3cnnc3)c2)o1", "inhibition of growth at 6.25 µg/mL": 58}, {"smiles": "CSc1nnc(-c2cccc(NC(=S)NCCO)c2)o1", "inhibition of growth at 6.25 µg/mL": 8}, {"smiles": "O=C(CSc1nnc(-c2ccc(NC(=S)NCCO)cc2)o1)c1ccc(F)cc1", "inhibition of growth at 6.25 µg/mL": 90}, {"smiles": "O=C(CSc1nnc(-c2cccc(NC(=S)NCCO)c2)o1)c1ccc(Cl)cc1Cl", "inhibition of growth at 6.25 µg/mL": 0}, {"smiles": "O=C(CSc1nnc(-c2cccc(N=C=S)c2)o1)c1ccc(Br)cc1", "inhibition of growth at 6.25 µg/mL": 0}, {"smiles": "NC(=S)Nc1cccc(-c2nnc(SCC(=O)c3ccc(Cl)cc3)o2)c1", "inhibition of growth at 6.25 µg/mL": 0}, {"smiles": "O=C(CSc1nnc(-c2cccc(NC(=S)NCCO)c2)o1)c1ccccc1", "inhibition of growth at 6.25 µg/mL": 12}, {"smiles": "CSc1nnc(-c2cccc(NC(=S)NN(C)C)c2)o1", "inhibition of growth at 6.25 µg/mL": 8}, {"smiles": "C=CCNC(=S)Nc1cccc(-c2nnc(S)o2)c1", "inhibition of growth at 6.25 µg/mL": 0}, {"smiles": "O=C(CSc1nnc(-c2ccc(N=C=S)cc2)o1)c1ccccc1", "inhibition of growth at 6.25 µg/mL": 22}, {"smiles": "O=C(CSc1nnc(-c2cccc(NC(=S)NCCO)c2)o1)c1ccc(F)cc1", "inhibition of growth at 6.25 µg/mL": 0}, {"smiles": "S=C=Nc1cccc(-c2nnc(S)o2)c1", "inhibition of growth at 6.25 µg/mL": 9}, {"smiles": "S=C=Nc1ccc(-c2nnc(SCc3ccccc3)o2)cc1", "inhibition of growth at 6.25 µg/mL": 20}, {"smiles": "CN(C)C(=S)Nc1cccc(-c2nnc(SCC(=O)c3ccc4ccccc4c3)o2)c1", "inhibition of growth at 6.25 µg/mL": 0}, {"smiles": "NC(=S)Nc1cccc(-c2nnc(SCC(=O)c3ccccc3)o2)c1", "inhibition of growth at 6.25 µg/mL": 0}, {"smiles": "CN(C)NC(=S)Nc1ccc(-c2nnc(S)o2)cc1", "inhibition of growth at 6.25 µg/mL": 9}, {"smiles": "NC(=S)Nc1cccc(-c2nnc(SCC(=O)c3ccc4ccccc4c3)o2)c1", "inhibition of growth at 6.25 µg/mL": 16}, {"smiles": "CSc1nnc(-c2ccc(N=C=S)cc2)o1", "inhibition of growth at 6.25 µg/mL": 37}, {"smiles": "NC(S)=Nc1cccc(-c2nnc(S)o2)c1", "inhibition of growth at 6.25 µg/mL": 13}, {"smiles": "C=CCNC(=S)Nc1ccc(-c2nnc(S)o2)cc1", "inhibition of growth at 6.25 µg/mL": 6}, {"smiles": "CSc1nnc(-c2cccc(NC(N)=S)c2)o1", "inhibition of growth at 6.25 µg/mL": 25}, {"smiles": "CN(C)NC(=S)Nc1cccc(-c2nnc(S)o2)c1", "inhibition of growth at 6.25 µg/mL": 5}, {"smiles": "OCCNC(=S)Nc1ccc(-c2nnc(Sc3ncccn3)o2)cc1", "inhibition of growth at 6.25 µg/mL": 14}, {"smiles": "S=C=Nc1cccc(-c2nnc(SCc3ccccc3)o2)c1", "inhibition of growth at 6.25 µg/mL": 0}, {"smiles": "CSc1nnc(-c2ccc(NC(N)=S)cc2)o1", "inhibition of growth at 6.25 µg/mL": 78}, {"smiles": "Cc1ccc(NC(S)=Nc2cccc(-c3nnc(S)o3)c2)cc1", "inhibition of growth at 6.25 µg/mL": 18}, {"smiles": "Cc1ccc(C(=O)CSc2nnc(-c3cccc(NC(=S)N(C)C)c3)o2)cc1", "inhibition of growth at 6.25 µg/mL": 10}, {"smiles": "CNC(=S)Nc1ccc(-c2nnc(S)o2)cc1", "inhibition of growth at 6.25 µg/mL": 0}, {"smiles": "CSc1nnc(-c2cccc(NC(S)=NN)c2)o1", "inhibition of growth at 6.25 µg/mL": 0}, {"smiles": "O=C(CSc1nnc(-c2cccc(N=C=S)c2)o1)c1ccc2ccccc2c1", "inhibition of growth at 6.25 µg/mL": 0}, {"smiles": "C/C(=N/NC(=S)Nc1cccc(-c2nnc(S)o2)c1)c1ccccc1", "inhibition of growth at 6.25 µg/mL": 20}, {"smiles": "Cc1ccc(NC(=S)Nc2ccc(-c3nnc(S)o3)cc2)cc1", "inhibition of growth at 6.25 µg/mL": 5}, {"smiles": "S=C(Nc1cccc(-c2nnc(S)o2)c1)Nn1cnnc1", "inhibition of growth at 6.25 µg/mL": 13}, {"smiles": "O=C(CSc1nnc(-c2cccc(NC(=S)NCCO)c2)o1)c1ccc(Br)cc1", "inhibition of growth at 6.25 µg/mL": 17}, {"smiles": "CSc1nnc(-c2ccc(NC(=S)NCCO)cc2)o1", "inhibition of growth at 6.25 µg/mL": 67}, {"smiles": "S=C=Nc1ccc(-c2nnc(SCc3ccncc3)o2)cc1", "inhibition of growth at 6.25 µg/mL": 27}, {"smiles": "CSc1nnc(-c2ccc(NC(=S)Nc3ccc(C)cc3)cc2)o1", "inhibition of growth at 6.25 µg/mL": 17}, {"smiles": "CN(C)C(=S)Nc1cccc(-c2nnc(SCC(=O)c3ccc(Cl)cc3Cl)o2)c1", "inhibition of growth at 6.25 µg/mL": 1}, {"smiles": "C=CCSc1nnc(-c2ccc(N=C=S)cc2)o1", "inhibition of growth at 6.25 µg/mL": 56}, {"smiles": "S=C(Nc1cccc(-c2nnc(S)o2)c1)N1CCCCC1", "inhibition of growth at 6.25 µg/mL": 13}, {"smiles": "CSc1nnc(-c2ccc(NC(=S)N3CCOCC3)cc2)o1", "inhibition of growth at 6.25 µg/mL": 0}, {"smiles": "CNC(=S)Nc1cccc(-c2nnc(SCC(=O)c3ccc4ccccc4c3)o2)c1", "inhibition of growth at 6.25 µg/mL": 0}, {"smiles": "OCCNC(=S)Nc1ccc(-c2nnc(SCc3ccncc3)o2)cc1", "inhibition of growth at 6.25 µg/mL": 25}, {"smiles": "O=C(CSc1nnc(-c2cccc(N=C=S)c2)o1)c1ccc(Cl)cc1", "inhibition of growth at 6.25 µg/mL": 0}, {"smiles": "C=CCSc1nnc(-c2cccc(N=C=S)c2)o1", "inhibition of growth at 6.25 µg/mL": 3}, {"smiles": "O=C(CSc1nnc(-c2ccc(N=C=S)cc2)o1)c1ccc(F)cc1", "inhibition of growth at 6.25 µg/mL": 12}, {"smiles": "NC(=S)Nc1cccc(-c2nnc(SCc3ccccc3)o2)c1", "inhibition of growth at 6.25 µg/mL": 0}, {"smiles": "CSc1nnc(-c2cccc(NC(=S)N3CCOCC3)c2)o1", "inhibition of growth at 6.25 µg/mL": 0}, {"smiles": "S=C(Nc1ccc(-c2nnc(S)o2)cc1)N1CCCCC1", "inhibition of growth at 6.25 µg/mL": 28}, {"smiles": "S=C=Nc1ccc(-c2nnc(Sc3ncccn3)o2)cc1", "inhibition of growth at 6.25 µg/mL": 14}, {"smiles": "CC(C)=NNC(=S)Nc1cccc(-c2nnc(S)o2)c1", "inhibition of growth at 6.25 µg/mL": 16}, {"smiles": "OCCNC(=S)Nc1ccc(-c2nnc(S)o2)cc1", "inhibition of growth at 6.25 µg/mL": 9}, {"smiles": "CSc1nnc(-c2ccc(NC(=S)Nn3cnnc3)cc2)o1", "inhibition of growth at 6.25 µg/mL": 58}, {"smiles": "O=C(CSc1nnc(-c2cccc(NC(=S)NCCO)c2)o1)c1ccc2ccccc2c1", "inhibition of growth at 6.25 µg/mL": 0}, {"smiles": "NC(=S)Nc1cccc(-c2nnc(SCC(=O)c3ccc(Br)cc3)o2)c1", "inhibition of growth at 6.25 µg/mL": 6}, {"smiles": "O=C(CSc1nnc(-c2ccc(N=C=S)cc2)o1)c1ccc(Cl)cc1Cl", "inhibition of growth at 6.25 µg/mL": 2}, {"smiles": "S=C=Nc1ccc(-c2nnc(S)o2)cc1", "inhibition of growth at 6.25 µg/mL": 2}, {"smiles": "NC(=S)Nc1ccc(-c2nnc(SCC(=O)c3ccccc3)o2)cc1", "inhibition of growth at 6.25 µg/mL": 61}, {"smiles": "NC(=S)Nc1cccc(-c2nnc(SCC(=O)c3ccc(Cl)cc3Cl)o2)c1", "inhibition of growth at 6.25 µg/mL": 0}, {"smiles": "NC(=S)Nc1cccc(-c2nnc(SCCc3ccccc3)o2)c1", "inhibition of growth at 6.25 µg/mL": 16}, {"smiles": "OCCNC(=S)Nc1cccc(-c2nnc(SCCc3ccccc3)o2)c1", "inhibition of growth at 6.25 µg/mL": 13}, {"smiles": "CCNC(=S)Nc1ccc(-c2nnc(S)o2)cc1", "inhibition of growth at 6.25 µg/mL": 0}, {"smiles": "CN(C)C(=S)Nc1cccc(-c2nnc(SCC(=O)c3ccccc3)o2)c1", "inhibition of growth at 6.25 µg/mL": 9}, {"smiles": "NC(=S)Nc1cccc(-c2nnc(SCC(=O)c3ccc(F)cc3)o2)c1", "inhibition of growth at 6.25 µg/mL": 19}, {"smiles": "S=C=Nc1cccc(-c2cnc(SCCc3ccccc3)o2)c1", "inhibition of growth at 6.25 µg/mL": 0}, {"smiles": "NC(=S)Nc1ccc(-c2nnc(Sc3ncccn3)o2)cc1", "inhibition of growth at 6.25 µg/mL": 87}, {"smiles": "NNC(=S)Nc1ccc(-c2nnc(S)o2)cc1", "note": "[STEMAZOLE]", "inhibition of growth at 6.25 µg/mL": 0}, {"smiles": "O=C(CSc1nnc(-c2cccc(N=C=S)c2)o1)c1ccc(F)cc1", "inhibition of growth at 6.25 µg/mL": 5}, {"smiles": "CSc1nnc(-c2ccc(NC(=S)NN)cc2)o1", "inhibition of growth at 6.25 µg/mL": 0}, {"smiles": "O=C(CSc1nnc(-c2cccc(N=C=S)c2)o1)c1ccc(Cl)cc1Cl", "inhibition of growth at 6.25 µg/mL": 0}, {"smiles": "NN=C(S)Nc1cccc(-c2nnc(S)o2)c1", "inhibition of growth at 6.25 µg/mL": 0}, {"smiles": "CSc1nnc(-c2cccc(NC(=S)Nc3ccc(C)cc3)c2)o1", "inhibition of growth at 6.25 µg/mL": 21}, {"smiles": "CN(C)C(=S)Nc1cccc(-c2nnc(SCC(=O)c3ccc(Cl)cc3)o2)c1", "inhibition of growth at 6.25 µg/mL": 18}]}, {"system": "Mycobacterium tuberculosis", "experiment": "Antimycobacterial activity against Mycobacterium tuberculosis H37Rv ATCC 27294 assessed as growth inhibition at 12.5 ug/mL after 4 days by microplate alamar blue assay", "assay_type": "functional", "conditions": "H37Rv ATCC 27294, 96 h, read-out: GI", "units": {"inhibition of growth at 12.5 µg/mL": "%"}, "values": [{"smiles": "O=C(CSc1nnc(-c2ccc(NC(=S)NCCO)cc2)o1)c1ccccc1", "inhibition of growth at 12.5 µg/mL": 96}, {"smiles": "NC(=S)Nc1ccc(-c2nnc(SCc3ccncc3)o2)cc1", "inhibition of growth at 12.5 µg/mL": 97}, {"smiles": "C=CCSc1nnc(-c2ccc(NC(N)=S)cc2)o1", "inhibition of growth at 12.5 µg/mL": 98}, {"smiles": "O=C(CSc1nnc(-c2ccc(NC(=S)NCCO)cc2)o1)c1ccc(Cl)cc1Cl", "inhibition of growth at 12.5 µg/mL": 98}, {"smiles": "OCCNC(=S)Nc1ccc(-c2nnc(SCc3ccccc3)o2)cc1", "inhibition of growth at 12.5 µg/mL": 97}, {"smiles": "C=CCSc1nnc(-c2ccc(NC(=S)NCCO)cc2)o1", "inhibition of growth at 12.5 µg/mL": 96}, {"smiles": "NC(=S)Nc1ccc(-c2nnc(SCc3ccccc3)o2)cc1", "inhibition of growth at 12.5 µg/mL": 91}, {"smiles": "NC(=S)Nc1ccc(-c2nnc(SCC(=O)c3ccc(Cl)cc3Cl)o2)cc1", "inhibition of growth at 12.5 µg/mL": 93}]}]}
